Assay results from ChEMBL document CHEMBL1201862, “PubChem BioAssay data set” (2004).
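Dose response: 5 concentrations. Exposure: 48 h. Format: 96-well plates. Endpoint: linear interpolation; highest concentration if not reached. Here, GI50 denotes the concentration required for 50% inhibition of growth.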 Calls of active or inactive are those of the source. Rule as the data show it: active = GI50 up to about 1.1 µM and inactive = higher.

Columns and labels:
Test in all cases: DTP human tumour cell line panel, 48 h
786-0 = test system: 786-0
A498 = test system: A498
DU-145 = test system: DU-145
HL-60 = test system: HL-60
IGROV-1 = test system: IGROV-1
K562 = test system: K562
LOX IMVI = test system: LOX IMVI
M14 = test system: M14
MCF7 = test system: MCF7
MDA-MB-231 = test system: MDA-MB-231
MDA-MB-435 = test system: MDA-MB-435
NCI-H23 = test system: NCI-H23
OVCAR-8 = test system: OVCAR-8
RPMI-8226 = test system: RPMI-8226
SF-268 = test system: SF-268
SF-295 = test system: SF-295
SF-539 = test system: SF-539
SW-620 = test system: SW-620
TK-10 = test system: TK-10
U-251 = test system: U-251

| Compound | GI50 (786-0) | GI50 (A498) | GI50 (DU-145) | GI50 (HL-60) | GI50 (IGROV-1) | GI50 (K562) | GI50 (LOX IMVI) | GI50 (M14) | GI50 (MCF7) | GI50 (MDA-MB-231) | GI50 (MDA-MB-435) | GI50 (NCI-H23) | GI50 (OVCAR-8) | GI50 (RPMI-8226) | GI50 (SF-268) | GI50 (SF-295) | GI50 (SF-539) | GI50 (SW-620) | GI50 (TK-10) | GI50 (U-251) |
| --- | --- | --- | --- | --- | --- | --- | --- | --- | --- | --- | --- | --- | --- | --- | --- | --- | --- | --- | --- | --- |
| CC1=C(C(=O)Nc2ccc(Cl)c(C(=O)OC(C)C)c2)SCCO1 | > 100 µM (inactive) | 53.5 µM (inactive) | > 100 µM (inactive) | 13.8 µM (inactive) | 72.4 µM (inactive) | 45.6 µM (inactive) | 51.6 µM (inactive) | > 100 µM (inactive) | 55.3 µM (inactive) | > 100 µM (inactive) | > 100 µM (inactive) | 69.2 µM (inactive) | 81.3 µM (inactive) | 23.3 µM (inactive) | 30.6 µM (inactive) | 54.7 µM (inactive) | > 89.3 µM (inactive) | 74.8 µM (inactive) | > 100 µM (inactive) | 55.7 µM (inactive) |
| N#CI1OC(=O)c2ccccc21 | > 100 µM (inactive) | > 100 µM (inactive) | > 100 µM (inactive) | 59.6 µM (inactive) | > 100 µM (inactive) | 39.8 µM (inactive) | > 100 µM (inactive) | > 100 µM (inactive) | 60.7 µM (inactive) | > 100 µM (inactive) | > 100 µM (inactive) | > 100 µM (inactive) | > 100 µM (inactive) | 38.5 µM (inactive) | > 100 µM (inactive) | > 100 µM (inactive) | > 100 µM (inactive) | > 100 µM (inactive) | > 100 µM (inactive) | > 100 µM (inactive) |
| CNC1NC(=O)c2ccccc2N1Cc1ccc(F)cc1 (stereo not given) | > 100 µM (inactive) | > 100 µM (inactive) | > 100 µM (inactive) | > 100 µM (inactive) | > 100 µM (inactive) | > 100 µM (inactive) | > 100 µM (inactive) | > 100 µM (inactive) | > 100 µM (inactive) | > 100 µM (inactive) | > 100 µM (inactive) | > 100 µM (inactive) | > 100 µM (inactive) | > 100 µM (inactive) | > 100 µM (inactive) | > 100 µM (inactive) | > 100 µM (inactive) | > 100 µM (inactive) | > 100 µM (inactive) | > 100 µM (inactive) |
| O=[N+]([O-])/C(Cl)=C(/C(Cl)=C(Cl)Cl)N1CCOCC1 | 2.92 µM (inactive) | 3.04 µM (inactive) | 13.7 µM (inactive) | 2.28 µM (inactive) | 1.92 µM (inactive) | 3.18 µM (inactive) | 3.66 µM (inactive) | 2.36 µM (inactive) | 1.12 µM (active) | 3.86 µM (inactive) | 2.28 µM (inactive) | 2.24 µM (inactive) | 2.56 µM (inactive) | 2.56 µM (inactive) | 6.41 µM (inactive) | 11.5 µM (inactive) | 3.12 µM (inactive) | 2.69 µM (inactive) | 3.49 µM (inactive) | 10.7 µM (inactive) |
| Brc1ccccc1/C=C\C1(c2ccccc2)OCCO1 | 11.6 µM (inactive) | 12.9 µM (inactive) | 13.7 µM (inactive) | 24.7 µM (inactive) | 13.6 µM (inactive) | 1.01 µM (active) | 3.34 µM (inactive) | 11.4 µM (inactive) | 4 µM (inactive) | 9.27 µM (inactive) | 11.7 µM (inactive) | 7.29 µM (inactive) | 9.23 µM (inactive) | 1.01 µM (active) | 4.98 µM (inactive) | 13.4 µM (inactive) | 10.4 µM (inactive) | 5.47 µM (inactive) | 16.6 µM (inactive) | 6.24 µM (inactive) |
| COC(=O)c1cc(C)ccc1CC(Cc1ccc(C)cc1)C(=O)OC (stereo not given) | 25.7 µM (inactive) | 72.6 µM (inactive) | > 33 µM (inactive) | 4.37 µM (inactive) | 72.4 µM (inactive) | 3.18 µM (inactive) | 19.1 µM (inactive) | 20.9 µM (inactive) | 26.3 µM (inactive) | 31.9 µM (inactive) | 31 µM (inactive) | 9.4 µM (inactive) | > 66.8 µM (inactive) | 5.77 µM (inactive) | 7.52 µM (inactive) | 27.3 µM (inactive) | 27.5 µM (inactive) | 23.5 µM (inactive) | > 100 µM (inactive) | 42.1 µM (inactive) |
| Nc1ccccc1CCN1CCN(CCCc2ccccc2)CC1 | 31.7 µM (inactive) | 74.5 µM (inactive) | > 100 µM (inactive) | 17.8 µM (inactive) | 50.6 µM (inactive) | 27.8 µM (inactive) | 34.4 µM (inactive) | 17.3 µM (inactive) | 46.8 µM (inactive) | 61.1 µM (inactive) | 72.4 µM (inactive) | > 100 µM (inactive) | 49.5 µM (inactive) | 27.8 µM (inactive) | 99.5 µM (inactive) | 45.4 µM (inactive) | 39.2 µM (inactive) | 95.3 µM (inactive) | 91.2 µM (inactive) | > 100 µM (inactive) |
